Source: US20260248924A1, “MITOCHONDRIA-TARGETED AGENTS FOR DISEASE PREVENTION AND TREATMENT” (THE METHODIST HOSPITAL, priority 2023, published 2026)
“Also recorded” adds a separate entry of the source.

How the values were obtained:
[1] = rat, in vivo; cited from earlier work
[2] = system: lung adenocarcinoma (LUAD) cell lines (H2030-BrM3, LKR-13); test: Cellular proliferation assay (IncuCyte cell confluence), PEITC vs Mito-PEITC; format: cell-based; details: Homo sapiens, real-time cell confluence, both LUAD cell lines tested, read-out: IC50, inhibition of proliferation
[3] = system: VC-induced lung tumors; test: VC-induced lung tumorigenesis study; format: in vivo, A/J mice; details: 100 μmol/kg, oral gavage 5 days/week for 20 weeks
Method: Six-week-old female A/J mice were injected with VC (single i.p. dose, 16 mg/kg). […] Treatments were administered by oral gavage five times per week. After 18 weeks of treatment, the mice were euthanized. […] The rest of lungs were evaluated under a dissecting microscope to obtain the surface tumor count and individual tumor diameter. Tumor volume was calculated based on the formula V=4πr(3)/3. Tumor load (the total tumor volume in each mouse) was calculated from the sum of all tumors.

[4] = system: H2030-BrM3 cells; test: Lung cancer brain metastasis model (left ventricle injection); format: in vivo, NOD/SCID mice; details: PEITC at 25-fold higher dose (printed 100 mol/kg), oral gavage
Method: Mice were imaged for luciferase expression as a marker of tumor growth, using an IVIS 100 imaging system, over five weeks after cell injection. Regions of interest were defined manually, and LivingImage and Igor software was used to determine total photon flux.
For the brain metastasis studies, female NOD/SCID mice (age 5 weeks) were used. H2030-BrM3 cells (2×10^5) were suspended in PBS (0.1 mL) and injected into the left ventricle under ultrasound guidance (ECHO 707, GE, Milwaukee, WI). […] Mice were treated by oral gavage 5 days per week and metastases were monitored periodically by bioluminescence. Mice were euthanized at day 28 after the arterial injection of tumor cells.

[5] = human, in vivo; cited from earlier work
[6] = system: B(a)P-induced lung tumors; test: B(a)P-induced lung tumorigenesis, post-initiation model; format: in vivo, A/J mice; details: 100 μmol/kg, 5 days/week, 20 weeks
[7] = system: H2030-BrM3 cells; test: Orthotopic model of lung adenocarcinoma; format: in vivo, nude mice; details: 4 μmol/kg, oral gavage 5 days/week for 3 weeks
Method: An orthotopic model of lung adenocarcinoma cells (H2030-BrM3 cells) in athymic nude mice was used. Nude mice (5 weeks old) were anesthetized with isoflurane and placed in the right lateral decubitus position. A total of 1×10^6 H2030-BrM3 cells in […] of growth factor reduced Matrigel in 50 μL of RPMI1640 medium were injected into the left lung through the left rib cage. […] Tumor growth and metastases were monitored over time by bioluminescence (after injection of D-luciferin, 150 μg/g) using Lumina IVIS 100 imager (Perkin Elmer, Waltham, MA). Mice were euthanized on day 28.
A study using an orthotopic model of lung adenocarcinoma in nude mice was conducted. H2030-BrM3 cells were injected into the lung. […] PEITC was not effective, as expected, because the applied dose (4 μmol/kg) is below the levels typically used in xenograft studies (Zhang, Q., et al., Mol Carcinog, 2020. 59(6): p. 590-603).

[8] = in vivo; cited from earlier work
[9] = system: lung tumorigenesis induced by benzo(a)pyrene; details: in vivo; cited from earlier work

S=C=NCCc1ccccc1 [PEITC, phenethyl isothiocyanate]
toxicity for female rats [1]: extremely low toxicity | IC50 [2]: 12 µM | VC-induced lung tumor development [3]: ineffective | effect on lung cancer brain metastasis [4]: ineffective; also recorded: does not inhibit brain metastasis | safety in clinical trial [5]: safe | B(a)P-induced lung tumor development [6]: ineffective | effect on orthotopic lung tumor growth [7]: not effective | blood-brain barrier passage [8]: crosses the blood-brain barrier | plasma protein binding [8]: high | efficacy against lung tumorigenesis induced by benzo(a)pyrene [9]: not effective
